target: T1, VHL-ElonginBC complex (Homo sapiens, UniProt P40337); test: Fluorescence-polarization (FP) competitive binding assay for VHL; conditions: VHL ligands; VHL-ElonginBC complex and fluorescent probe both 5 nM; read-out: FP Binding affinity IC50
T1 construct: His-TEV (His-tag with TEV protease site) (cleaved yes); made in house; host or cells: E. coli BL21(DE3)
Description: Cloning and Purification of VHL-ElonginBC complex. The DNA sequence of VHL (coding for residues 54-213) was constructed by PCR and inserted into a His-TEV expression vector^58 using ligation-independent cloning. The DNA sequences of Elongin B (encoding residues 1-118) and Elongin C (encoding residues 1-96) were constmcted by PCR and inserted into pCDFDuet 1 using Gibson assembly.^59 BL21(DE3) cells were transformed simultaneously with both plasmids and grown in Terrific Broth at 37° C. until an OD600 of 1.2. The cells were induced overnight with 0.4 mM IPTG at 24° C. Pelleted cells were freeze-thawed then resuspended in 20 mM Tris HCl pH7.0, 200 mM NaCl and 0.1% β-mercaptoethanol (bME) containing protease inhibitors. The cell suspension was lysed by sonication and debris removed via centrifugation. The supernatant was incubated at 4° C. for 1 hr with Ni-NTA (Qiagen) pre-washed in 20 mM Tris-HCl pH 7.0, 200 mM NaCl and 10 mM Imidazole. The protein complex was eluted in 20 mM Tris-HCl pH 7.0, 200 mM NaCl and 300 mM Imidazole, dialyzed into 20 mM Tris-HCl pH 7.0, 150 mM NaCl, and 0.01% bME and incubated with TEV protease overnight at 4° C. The protein sample was reapplied to the Ni-NTA column to remove the His-tag. The flow through containing the VHL complex was diluted to 75 mM NaCl and applied to a HiTrap Q column (GE Healthcare). The sample was eluted with a salt gradient (0.075-1 M NaCl), concentrated and further purified on a Superdex S75 column (GE Healthcare) pre-equilibrated with 20 mM Bis-Tris 7.0, 150 mM NaCl and 1 mM DTT. Samples were aliquoted and stored at −80° C.
Binding Affinities of VHL ligands to VHL. A fluorescence-polarization (FP) competitive assay was established using VHL-ElonginBC complex and a fluorescently tagged probe (SI). The IC50 and Ki values of VHL ligands were determined in competitive binding experiments. Mixtures of 5 μL of compounds in DMSO and 95 μL of preincubated protein/tracer complex solution were added into assay plates which were incubated at rt for 60 min with gentle shaking. Final concentrations of VHL-ElonginBC complex and fluorescent probe were both 5 nM. Negative controls containing protein/probe complex only (equivalent to 0% inhibition) and positive controls containing only free probes (equivalent to 100% inhibition) were included in each assay plate. FP values in millipolarization units (mP) were measured using the Infinite M-1000 plate reader (Tecan U.S., Research Triangle Park, N.C.) in Microfluor 1 96-well, black, round-bottom plates (Thermo Scientific, Waltham, Mass.) at an excitation wavelength of 485 nm and an emission wavelength of 530 nm. IC50 values were determined by nonlinear regression fitting of the competition curves. Ki values of competitive inhibitors were obtained directly by nonlinear regression fitting, based upon the KD values of the probe and concentrations of the protein and probe in the competitive assays. All the FP competitive experiments were performed in duplicate in three independent experiments.

Row | Structure (SMILES) | IC50 [µM]
1 | CC(=O)N[C@H](C(=O)N1C[C@H](O)C[C@H]1C(=O)N[C@@H](C)c1ccc(-c2scnc2C)cc1)C(C)(C)C [compound 11, (2S,4R)-1-((S)-2-Acetamido-3,3-dimethylbutanoyl)-4-hydroxy-N—((S)-1-(4-(4-methylthiazol-5-yl)phenyl)ethyl)pyrrolidine-2-carboxamide, reference compound] | 0.196 ± 0.006
2 | C#Cc1ccc([C@H](C)NC(=O)[C@@H]2C[C@@H](O)CN2C(=O)[C@@H](NC(C)=O)C(C)(C)C)cc1 [44a, (2S,4R)-1-((S)-2-acetamido-3,3-dimethylbutanoyl)-N—((S)-1-(4-ethynylphenyl)ethyl)-4-hydroxypyrrolidine-2-carboxamide] | 0.879 ± 0.097
3 | CC(=O)N[C@H](C(=O)N1C[C@H](O)C[C@H]1C(=O)N[C@@H](C)c1ccc(C(C)C)cc1)C(C)(C)C [47a, (2S,4R)-1-((S)-2-acetamido-3,3-dimethylbutanoyl)-4-hydroxy-N—((S)-1-(4-isopropylphenyl)ethyl)pyrrolidine-2-carboxamide] | 41 ± 6.67
4 | CC(=O)N[C@H](C(=O)N1C[C@H](O)C[C@H]1C(=O)N[C@@H](C)c1ccc(C2CC2)cc1)C(C)(C)C [46a, (2S,4R)-1-((S)-2-acetamido-3,3-dimethylbutanoyl)-N—((S)-1-(4-cyclopropylphenyl)ethyl)-4-hydroxypyrrolidine-2-carboxamide] | 6.11 ± 0.82

target: T2, ERα (Homo sapiens, UniProt P03372); test: ER degradation by Western blotting in MCF-7 cells; type: cell-based; design: host or cells: MCF-7; conditions: 1 nM, 10 nM and 100 nM, 4 h, linkers containing 6-9 carbon atoms
T2 sequence (P03372 1-595): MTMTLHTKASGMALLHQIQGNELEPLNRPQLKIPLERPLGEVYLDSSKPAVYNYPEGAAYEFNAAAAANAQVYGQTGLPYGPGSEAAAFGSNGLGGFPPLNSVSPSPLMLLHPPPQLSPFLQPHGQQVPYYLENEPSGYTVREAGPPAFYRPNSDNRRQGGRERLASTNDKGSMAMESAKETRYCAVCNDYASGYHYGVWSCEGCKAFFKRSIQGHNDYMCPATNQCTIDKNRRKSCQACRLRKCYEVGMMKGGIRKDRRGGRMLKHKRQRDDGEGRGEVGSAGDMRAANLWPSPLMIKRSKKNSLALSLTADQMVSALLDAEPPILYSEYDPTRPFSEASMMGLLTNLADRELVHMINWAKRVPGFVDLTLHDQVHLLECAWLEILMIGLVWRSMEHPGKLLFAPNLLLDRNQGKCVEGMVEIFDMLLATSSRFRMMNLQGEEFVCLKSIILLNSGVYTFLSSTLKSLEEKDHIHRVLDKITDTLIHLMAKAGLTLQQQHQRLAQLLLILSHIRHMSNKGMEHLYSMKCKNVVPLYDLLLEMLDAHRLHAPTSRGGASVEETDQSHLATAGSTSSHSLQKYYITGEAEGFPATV
Description: FIG. 1 is an image showing the Western blotting analysis of ER protein in MCF-7 cells treated with Compounds of the Disclosure and control compounds. Cells were treated with different compounds for 4 h and whole cell lysates were then analyzed by Western blotting to examine the level of ER protein. GADPH protein was used for the loading control. The numbers below the panel represent the ERα/GADPH ratio normalized with the DMSO control at 100.
FIG. 2 is an image showing the Western blotting analysis of ER protein in the MCF-7 cells treated with indicated compounds at 1 nM, 10 nM and 100 nM. MCF-7 cells were treated with different compounds for 4 h and whole cell lysates were analyzed by Western blotting to examine the level of ER protein. GADPH protein was used for the loading control. The numbers below the panel represent the ERα/GADPH ratio normalized with the DMSO control at 100.
FIG. 7 is an image showing the ERα degradation dose-response Western blotting for compound 32 at 4 h in MCF-7 cells.
FIG. 9 is an image showing the time course of ERα degradation by Western blotting by compound 32 (30 nM) and fulvestrant (30 nM) in the MCF-7 cells.
Cell Culture. Human breast cancer cell lines MCF-7 (ATCC® HTB-22™) and T47D (ATCC® HTB-133™) were purchased from the American Type Culture Collection (ATCC), Manassas, Va., and maintained and cultured in Dulbecco's Modified Eagle's medium (DMEM) containing 10% fetal bovine serum, 1 unit/ml of penicillin and 1 μg/ml of streptomycin. Cells with 3-8 passages after purchase were used in experiments as indicated.
Western Blot Analysis. Western blot analysis was performed essentially as described previously (Hu et al, 2015, PMID: 26358219). Cells treated with indicated compounds were lysed in Radioimmunoprecipitation Assay Protein Lysis and Extraction Buffer (25 mmol/L Tris.HCl, pH 7.6, 150 mmol/L NaCl, 1% Nonidet P-40, 1% sodium deoxycholate, and 0.1% sodium dodecyl sulfate) containing proteinase inhibitor cocktail (Roche Diagnostics, Mannheim, Germany). After determination of protein concentration by BCA assay (Fisher Scientific, Pittsburgh, Pa.), equal amounts of total protein were electrophoresed through 10% SDS-polyacrylamide gels. The separated protein bands were transferred onto PVDF membranes (GE Healthcare Life Sciences, Marlborough, Mass.) and blotted against different antibodies, as indicated. The human estrogen receptor a antibodies (AB16460) were purchased from Abeam, Inc., Cambridge, Mass. The membranes were reblotted with horseradish peroxidase-conjugated anti-glyceraldehyde-3-phosphate dehydrogenase antibody (G9295) from Sigma-Aldrich Corporation, St. Louis, Mo. The blots were scanned and the band intensities were quantified using GelQuant.NET software as described in biochemlabsolutions.com. The relative mean intensity of target proteins was expressed after normalization to the intensity of glyceraldehyde-3-phosphate dehydrogenase bands from individual repeats.

Row | Structure (SMILES) | ER degradation (Western blotting)
5 | CCN(CCCCCCC(=O)N[C@H](C(=O)N1C[C@H](O)C[C@H]1C(=O)N[C@@H](C)c1ccc(-c2scnc2C)cc1)C(C)(C)C)CCOc1ccc(C(=O)c2c(-c3ccc(O)cc3)sc3cc(O)ccc23)cc1 [compound 19, (2S,4R)-1-((S)-2-(7-(Ethyl(2-(4-(6-hydroxy-2-(4-hydroxyphenyl)benzo[b]thiophene-3-carbonyl)phenoxy)ethyl)amino)heptanamido)-3,3-dimethylbutanoyl)-4-hydroxy-N—((S)-1-(4-(4-methylthiazol-5-yl)phenyl)ethyl)pyrrolidine-2-carboxamide] | surprisingly effective in inducing ER degradation at concentrations as low as 1 nM
6 | CCN(CCCCCCCCCC(=O)N[C@H](C(=O)N1C[C@H](O)C[C@H]1C(=O)N[C@@H](C)c1ccc(-c2scnc2C)cc1)C(C)(C)C)CCOc1ccc(C(=O)c2c(-c3ccc(O)cc3)sc3cc(O)ccc23)cc1 [compound 21, (2S,4R)-1-((S)-2-(10-(Ethyl(2-(4-(6-hydroxy-2-(4-hydroxyphenyl)benzo[b]thiophene-3-carbonyl)phenoxy)ethyl)amino)decanamido)-3,3-dimethylbutanoyl)-4-hydroxy-N—((S)-1-(4-(4-methylthiazol-5-yl)phenyl)ethyl)pyrrolidine-2-carboxamide] | surprisingly effective in inducing ER degradation at concentrations as low as 1 nM
7 | CCN(CCCCCC(=O)N[C@H](C(=O)N1C[C@H](O)C[C@H]1C(=O)N[C@@H](C)c1ccc(-c2scnc2C)cc1)C(C)(C)C)CCOc1ccc(C(=O)c2c(-c3ccc(O)cc3)sc3cc(O)ccc23)cc1 [compound 18, (2S,4R)-1-((S)-2-(6-(Ethyl(2-(4-(6-hydroxy-2-(4-hydroxyphenyl)benzo[b]thiophene-3-carbonyl)phenoxy)ethyl)amino)hexanamido)-3,3-dimethylbutanoyl)-4-hydroxy-N—((S)-1-(4-(4-methylthiazol-5-yl)phenyl)ethyl)pyrrolidine-2-carboxamide] | surprisingly effective in inducing ER degradation at concentrations as low as 1 nM
8 | CCN(CCCCCCCC(=O)N[C@H](C(=O)N1C[C@H](O)C[C@H]1C(=O)N[C@@H](C)c1ccc(-c2scnc2C)cc1)C(C)(C)C)CCOc1ccc(C(=O)c2c(-c3ccc(O)cc3)sc3cc(O)ccc23)cc1 [compound 15, (2S,4R)-1-((S)-2-(8-(Ethyl(2-(4-(6-hydroxy-2-(4-hydroxyphenyl)benzo[b]thiophene-3-carbonyl)phenoxy)ethyl)amino)octanamido)-3,3-dimethylbutanoyl)-4-hydroxy-N—((S)-1-(4-(4-methylthiazol-5-yl)phenyl)ethyl)pyrrolidine-2-carboxamide] | surprisingly effective in inducing ER degradation at concentrations as low as 1 nM
9 | CCN(CCCCCCCCC(=O)N[C@H](C(=O)N1C[C@H](O)C[C@H]1C(=O)N[C@@H](C)c1ccc(-c2scnc2C)cc1)C(C)(C)C)CCOc1ccc(C(=O)c2c(-c3ccc(O)cc3)sc3cc(O)ccc23)cc1 [compound 20, (2S,4R)-1-((S)-2-(9-(Ethyl(2-(4-(6-hydroxy-2-(4-hydroxyphenyl)benzo[b]thiophene-3-carbonyl)phenoxy)ethyl)amino)nonanamido)-3,3-dimethylbutanoyl)-4-hydroxy-N—((S)-1-(4-(4-methylthiazol-5-yl)phenyl)ethyl)pyrrolidine-2-carboxamide] | surprisingly effective in inducing ER degradation at concentrations as low as 1 nM

From patent US20220079931A1, “ESTROGEN RECEPTOR PROTEIN DEGRADERS” (THE REGENTS OF THE UNIVERSITY OF MICHIGAN, priority 2019, published 2022)
